Results from patent US6544541B1, “Devices and compounds for treating arterial restenosis” (Cardiovascular Solutions, Inc., priority 1999, dated 2003).

How the values were obtained:
c-fos = c-fos gene expression by RT-PCR in human smooth muscle cells; format: cell-based; details: 25 μM MIBG pretreatment (10 minutes), then IGF-1 stimulated 15 minutes
[1] = test system: porcine coronary artery smooth muscle cells
H4IIE hepatoma cells [2] = assay: flow cytometry, bromodeoxyuridine incorporation in proliferating cells; format: cell-based; details: 25 μM MIBG, 48 hours; FIG. 4
Experimental: Additional verification that MIBG blocked cell proliferation was obtained using flow cytometry analysis. Proliferating H4IIE cells (<40% confluent) were incubated for 48 hours in the presence or absence (untreated control or containing MIBA) of 25 μM MIBG. The cells were pulse labeled with bromodeoxyuridine (BrdU) 2 hours before harvest to label replicating DNA. Cells were released by trypsinization, collected by centrifugation and permeabilized with Triton X-100 (1%). Replicated DNA was labeled with an anti-BrdU antibody conjugated to FITC (fluorescein isothiocyanate), while total DNA was labeled with propidium iodide. The FITC and propidium iodide labels were detected at 514 nm and 600 nm, respectively, with a Coulter flow cytometer™ (excitation wavelength 488 nm), and number of cells containing these fluors were quantified. The data were plotted as cells with propidium iodide versus cells with BrdU. […] To summarize, the results described above indicate that MIBG is a potent inhibitor of cell proliferation. Furthermore, the cellular process affected by MIBG is active throughout the cell cycle. This conclusion is based on the fact that there is no accumulation of cells at a specific phase of the cell cycle. In addition, it is of note that there is no apparent decrease in cell number or an increase in smaller cells, both characteristics of cell death.

L1210 = details: non-neuronal cell line L1210; cited from earlier work
[3] = test system: Friend erythroleukemia cells; assay: Friend cell differentiation; format: cell-based
Source text: It is of note however that MIBG acts at a point in the differentiation pathway that is distinct from 3-aminobenzamide.

[4] = test system: porcine radial artery to coronary artery anastomoses; assay: bypass graft organ culture, PCNA expression; details: 25 μM, 14 days in culture; FIG. 18
Experimental: Analogous to the organ culture model described above, a model of a radial artery to coronary artery bypass graft has been developed. It is of note that the construction of this anastomosis is identical to that used clinically in a bypass operation. Specifically, porcine radial artery to coronary artery anstomoses were conducted and placed into culture for 14 days. Control segments included coronary artery dissected and immediately frozen or incubated for 14 days before freezing. Alternatively, the anastomoses were incubated in the presence of 25 μM MIBG. PCNA (proliferating cell nuclear antigen) was detected by immunostaining after cryosectioning of the vessels. Nuclei were visualized with Hoescht […]. The numbers of nuclei and PCNA positive nuclei were determined and used to quantify the proliferation index.

[5] = test system: porcine coronary arteries; assay: coronary artery organ culture after balloon angioplasty (neointimal index); details: 25 μM in culture media over 14 days; FIG. 10
Source text: Although smooth muscle cell cultures can be used to determine the ability of a compound to inhibit proliferation, these cells are not good indicators of a compound's ability to prevent restenosis. This statement stems from the fact that several processes, including cell migration, proliferation and synthesis of ECM degrading enzymes, must be coordinately activated in order for restenosis to occur. A novel organ culture system has therefore been developed in order to test the effectiveness of MIBG and other compounds at preventing restenosis (Wilson et al, 1999, Cardiac Res 42: 761-772). In brief, hearts are transported from the abattoir to the laboratory on ice. The left descending coronary artery is exposed and a balloon catheter is inserted past the first bifurcation. The balloon is inflated, and after 1 minute is deflated and withdrawn. The damaged region (approximately 20 mm in length) is excised, cut into 4 pieces of 5 mm and each piece is placed into an individual well of a culture dish. These segments can be maintained in media containing 20% serum for up to 21 days. Upon harvest of the tissue, typically after 14 days, the vessel segments are placed into resin for histological analysis. Sections are prepared from vessel segments after removal of the first 1.5 mm. […] This file is imported into SigmaScan™, and staining in the areas of the intimal and medial layers quantified. […]

H4IIE hepatoma cells [6] = assay: RNA synthesis (3H-uridine incorporation) in insulin-stimulated quiescent H4IIE cells; format: cell-based; details: comparison with 3-aminobenzamide; 1 μM insulin, 6 hours; FIG. 1
Experimental: Incorporation of uridine or thymidine was used to define the change in rate of […] synthesis, respectively, in response to a mitogen such as insulin. Specifically, quiescent H4IIE cells were prepared by placing the cultures (in 24-well dishes) into serum-free a-minimal essential medium for 3 days. It is of note that the normal growth media for H4IIE cells is α-MEM containing 10% fetal bovine serum (FBS). […] Cells were subsequently lysed with detergent and the nucleic acids precipitated with 5% trichloroacetic acid. The precipitated material was collected on glass fibre filters and the radioactive content measured by scintillation counting.

smooth muscle cells [7] = assay: Boyden chamber smooth muscle cell migration in response to Angiotensin II; format: cell-based; details: 20 μM; 10 μM Angiotensin II in lower compartment; FIG. 17
Experimental: Specifically, smooth muscle cells were seeded into the upper chamber of a Boyden chamber, which consists of two compartments that are separated by a permeable membrane. […] Specifically, migration to the lower compartment was determined by counting cells on the underside of the membrane. Data are presented as means ± standard error for six independent determinations.

smooth muscle cells [8] = details: cited from earlier work

meta-iodobenzylguanidine [MIBG]
c-fos mRNA levels (c-fos): equivalent to or below basal | levels at which cytotoxic [1]: ≥ 200 µM | decrease of basal DNA synthesis ([1]; MIBG alone, highest concentration tested, FIG. 8): ≤ 40 % of the control | concentrations inhibiting stimulation of DNA and RNA synthesis ([1]; stimulation by angiotensin II and serum, FIGS. 6 and 7): 20 to 50 µM | bromodeoxyuridine incorporation (DNA synthesis) (H4IIE hepatoma cells [2]): no bromodeoxyuridine incorporation is observed | concentration in cells relative to the surrounding medium (L1210): 15 times | effect on Friend cell differentiation [3]: inhibits Friend cell differentiation following commitment | increase in PCNA expression compared to segment examined immediately after dissection [4]: < 10 fold | neointimal index [5]: effectively reduces the neointimal index to control values | inhibition of cell growth as indicated by RNA synthesis in response to insulin (H4IIE hepatoma cells [6]): more potent inhibitor of cell growth | smooth muscle cell migration (smooth muscle cells [7]): inhibited smooth muscle cell migration | DNA synthesis (thymidine uptake) (smooth muscle cells [8]): had no effect on DNA synthesis | cell number (smooth muscle cells [8]): prevents an increase in cell number | production of collagen type I (smooth muscle cells [8]): decreased the production of collagen type I
